We go through three compounds from patent publication US20170312300A1, “Methods for Treating Cancer” (Fundacion Centro National de Investigaciones Oncolgicas …, priority 2014, published 2017).

Series [1] concerns advanced HCC. Particulars: patients with advanced HCC; cited from earlier work.
Series [2] deals with hepatocarcinogenesis. The conditions noted are these: cited from earlier work.
Series [3] deals with model of hepatic carcinogenesis. The conditions noted are these: cited from earlier work.
The target in series [4] is T1, kynurenine 3-monooxygenase (KMO) (Mus musculus, UniProt Q91WN4).
T1 construct: supplying C57BL/6 mice for 4 days with a DDC-supplemented diet; from tissue; host or cells: liver of living C57BL/6 mice (in vivo dosing)
Put plainly: Ro-61-8048 treatment of C57BL/6 mice previously fed DDC diet (liver NAD+ and DNA damage). It counts as in vivo. Particulars: 25 mg/Kg intraperitoneally for 3 consecutive days after 4 days DDC diet, vs DMSO. As to the method: Freshly harvested murine livers were fixed immediately in 10% buffered formalin solution overnight and embedded in paraffin. Sections of 3 μm were deparafinized, rehydrated and antigen retrieved by using 1M sodium citrate buffer (pH 6.5). After blocking endogenous peroxidase using 3% H2O2 (in methanol) for 5 min, sections were then blocked with 1:200 goat serum 5% BSA/PBST for 1 h at RT. Furthermore, sections were incubated with primary antibodies overnight at 4° C., after which Vectastain ABC kit (Vector Laboratories, Inc) was used, following manufacturer's instructions. Sections were then incubated with 33-diaminobenzidinetetracloride (DBA) and counterstained with hematoxylin. In the case of immunofluorescence, sections were incubated with PE-conjugated secondary antibodies (1:500) for 1 h at RT, followed by DAPI staining. Quantification was performed either by counting the number of positive cells in a minimum of six 10× or 20× microscopic fields, or the percentage of positive area using Color Deconvolution plug-in in Image J.
NAD+ levels were determined using a commercial kit (Enzychrom, BioAssays Systems, CA), and as previously described (Canto et al., 2012, Cell Metab 15, 838-847). NAD+/NADH assay kit is based on a […] cycling reaction, in which the formed NADH reduces a formazan (MTT) reagent. […]

T1 sequence (Q91WN4 whole entry): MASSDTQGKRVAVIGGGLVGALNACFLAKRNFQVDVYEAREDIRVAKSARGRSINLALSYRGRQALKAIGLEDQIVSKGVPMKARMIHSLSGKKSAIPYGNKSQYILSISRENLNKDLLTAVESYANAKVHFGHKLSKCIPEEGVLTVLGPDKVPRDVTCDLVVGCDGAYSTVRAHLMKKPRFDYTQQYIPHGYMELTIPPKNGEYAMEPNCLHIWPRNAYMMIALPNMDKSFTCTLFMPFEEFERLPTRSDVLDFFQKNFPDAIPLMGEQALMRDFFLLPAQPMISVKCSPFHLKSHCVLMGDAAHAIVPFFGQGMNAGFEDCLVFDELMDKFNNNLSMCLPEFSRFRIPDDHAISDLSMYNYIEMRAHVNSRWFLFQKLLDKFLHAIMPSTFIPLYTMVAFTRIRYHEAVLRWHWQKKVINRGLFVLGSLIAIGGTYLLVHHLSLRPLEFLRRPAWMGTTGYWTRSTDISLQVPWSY

Turning to `CNC(=O)c1cc(Oc2ccc(NC(=O)Nc3ccc(Cl)c(C(F)(F)F)c3)cc2)ccn1` [sorafenib], the “prolongation of survival compared to placebo” value in series [1] is given as “around 2 months”.

Consider `NC(=O)c1cccnc1` [nicotinamide], for which the hepatocarcinogenesis result in series [2] (both in vitro and in vivo) was “effectively inhibits”. For the same compound, the “formation of loci and adenomas” value in series [2] (in vivo) is “lower formation”. The “number of foci, their diameter or proportion of liver occupied by loci” value in series [3] was “no effect”.

With `COc1ccc(S(=O)(=O)Nc2nc(-c3cccc([N+](=O)[O-])c3)cs2)cc1OC` [Ro-61-8048], in series [4], the “DNA damage foci (γH2AX) in livers” value is listed as “significantly elevated” and the “NAD+ concentrations in livers” value is “reduced”.
